Results reported in PubChem BioAssay (NCI).
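How tested: cells in 96-well plates exposed to compound for 48 hours at five concentrations. GI50 marks 50% less growth. At the TGI there is no net growth.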

Key:
Assay in all cases: growth of human tumour cells (NCI), 48 h
[1] = tested on: NCI-H23 lung
[2] = tested on: SF-539 CNS
[3] = tested on: A549 NSCLC
[4] = tested on: SK-OV-3 ovarian
[5] = tested on: HCC-2998 colon
[6] = tested on: HT29 colon
[7] = tested on: SF-295 CNS
[8] = tested on: A498 renal
[9] = tested on: IGROV1 ovarian
[10] = tested on: RXF 393 renal
[11] = tested on: RPMI-8226 leukemia
[12] = tested on: HOP-92 NSCLC
[13] = tested on: SW-620 colon
[14] = tested on: SK-MEL-5 melanoma
[15] = tested on: M14 melanoma
[16] = tested on: NCI-H522 lung
[17] = tested on: SN12C renal
[18] = tested on: PC-3 prostate
[19] = tested on: NCI-H226 lung
[20] = tested on: BT-549 breast
[21] = tested on: SK-MEL-2 melanoma
[22] = tested on: MCF7 breast
[23] = tested on: HCT-15 colon
[24] = tested on: SF-268 CNS
[25] = tested on: OVCAR-4 ovarian
[26] = tested on: U251 CNS
[27] = tested on: TK-10 renal
[28] = tested on: HS 578T breast
[29] = tested on: SNB-19 CNS
[30] = tested on: OVCAR-5 ovarian
[31] = tested on: MDA-MB-231 breast
[32] = tested on: COLO 205 colon
[33] = tested on: HOP-62 NSCLC
[34] = tested on: MDA-MB-435
[35] = tested on: SR leukemia
[36] = tested on: OVCAR-8 ovarian
[37] = tested on: UACC-257 melanoma
[38] = tested on: MALME-3M melanoma
[39] = tested on: KM12 colon
[40] = tested on: CAKI-1 renal
[41] = tested on: DU-145 prostate
[42] = tested on: SK-MEL-28 melanoma
[43] = tested on: CCRF-CEM leukemia
[44] = tested on: NCI/ADR-RES ovarian
[45] = tested on: HL-60(TB) leukemia
[46] = tested on: UO-31 renal
[47] = tested on: LOX IMVI melanoma
[48] = tested on: T-47D breast
[49] = tested on: HCT-116 colon
[50] = tested on: UACC-62 melanoma
[51] = tested on: NCI-H460 lung
[52] = tested on: 786-0 renal
[53] = tested on: ACHN renal
[54] = tested on: EKVX NSCLC
[55] = tested on: K-562 leukemia
[56] = tested on: SNB-75 CNS
[57] = tested on: MOLT-4 leukemia
[58] = tested on: OVCAR-3 ovarian

Molecule `c1cc(N2CCCC2)c2nc(-c3[nH]ncc3Nc3ncnc4[nH]ccc34)[nH]c2c1` has a GI50 [1] of 0.0694 µM, a TGI [1] of 0.68 µM and a GI50 [2] of 0.0206 µM. For the same molecule, the TGI [2] was 0.256 µM, the GI50 [3] was 0.0806 µM and the TGI [3] was 0.455 µM. It also gave a GI50 [4] of 0.0276 µM, a TGI [4] of 0.586 µM and a GI50 [5] of 0.176 µM. It also gave a TGI [5] of 0.942 µM, a GI50 [6] of 0.371 µM and a TGI [6] of 3.25 µM. It also gave a GI50 [7] of 0.0441 µM, a TGI [7] of 0.337 µM and a GI50 [8] of 0.0202 µM. For the same molecule, the TGI [8] was 0.055 µM, the GI50 [9] was 0.0398 µM and the TGI [9] was 0.239 µM. For the same molecule, the GI50 [10] was 0.0228 µM, the TGI [10] was 0.0929 µM and the GI50 [11] was 0.254 µM. It also gave a TGI [11] of 1.06 µM, a GI50 [12] of 0.0298 µM and a TGI [12] of 0.0999 µM. For the same molecule, the GI50 [13] was 0.0684 µM, the TGI [13] was 0.548 µM and the GI50 [14] was 0.105 µM. It also gave a TGI [14] of 0.424 µM, a GI50 [15] of 0.0495 µM and a TGI [15] of 0.483 µM. It also gave a GI50 [16] of 0.0873 µM, a TGI [16] of 1.12 µM and a GI50 [17] of 0.0543 µM. The TGI [17] was 0.793 µM, the GI50 [18] was 0.0261 µM and the TGI [18] was 0.446 µM. It also gave a GI50 [19] of 0.041 µM, a TGI [19] of 0.204 µM and a GI50 [20] of 0.0672 µM. The TGI [20] was 0.736 µM, the GI50 [21] was 0.053 µM and the TGI [21] was 0.292 µM. It also gave a GI50 [22] of 0.0806 µM, a TGI [22] of 0.677 µM and a GI50 [23] of 0.0765 µM. The TGI [23] was 0.584 µM, the GI50 [24] was 0.108 µM and the TGI [24] was 0.569 µM. For the same molecule, the GI50 [25] was 0.146 µM, the TGI [25] was 1.14 µM and the GI50 [26] was 0.0474 µM. For the same molecule, the TGI [26] was 0.838 µM, the GI50 [27] was 0.323 µM and the TGI [27] was 1.38 µM. The TGI [28] was 0.0771 µM, the GI50 [29] was 0.0962 µM and the TGI [29] was 1.58 µM. For the same molecule, the GI50 [30] was 0.115 µM, the TGI [30] was 2.2 µM and the GI50 [31] was 0.0628 µM. The TGI [31] was 0.418 µM, the GI50 [32] was 0.285 µM and the TGI [32] was 2.03 µM. It also gave a GI50 [33] of 0.1 µM, a TGI [33] of 2.03 µM and a GI50 [34] of 0.0944 µM. It also gave a TGI [34] of 0.511 µM, a GI50 [35] of 0.0362 µM and a TGI [35] of 26.7 µM. The GI50 [36] was 0.0847 µM, the TGI [36] was 1.36 µM and the GI50 [37] was 0.15 µM. For the same molecule, the TGI [37] was 1.11 µM, the GI50 [38] was 0.16 µM and the TGI [38] was 0.8 µM. For the same molecule, the GI50 [39] was 0.0793 µM, the TGI [39] was 0.459 µM and the GI50 [40] was 0.022 µM. For the same molecule, the TGI [40] was 0.253 µM, the GI50 [41] was 0.0853 µM and the TGI [41] was 0.777 µM. It also gave a GI50 [42] of 0.0992 µM, a TGI [42] of 0.575 µM and a GI50 [43] of 0.028 µM. It also gave a TGI [43] of 1.31 µM, a GI50 [44] of 0.141 µM and a TGI [44] of 1.26 µM. The GI50 [45] was 0.0326 µM, the TGI [45] was 0.0916 µM and the GI50 [46] was 0.0278 µM. For the same molecule, the TGI [46] was 0.267 µM, the GI50 [47] was 0.0254 µM and the TGI [47] was 0.342 µM. It also gave a GI50 [48] of 0.139 µM, a TGI [48] of 5.97 µM and a GI50 [49] of 0.0255 µM. The TGI [49] was 1.61 µM, the GI50 [50] was 0.0554 µM and the TGI [50] was 0.196 µM. For the same molecule, the GI50 [51] was 0.0908 µM, the TGI [51] was 0.416 µM and the GI50 [52] was 0.0341 µM. For the same molecule, the TGI [52] was 0.56 µM, the GI50 [53] was 0.0302 µM and the TGI [53] was 0.679 µM. The GI50 [54] was 0.151 µM, the TGI [54] was 1.7 µM and the GI50 [55] was less than 0.0115 µM. It also gave a TGI [55] greater than 35 µM, a TGI [56] of 0.348 µM and a GI50 [57] of 0.0338 µM. It also gave a TGI [57] of 4.83 µM, a GI50 [58] of 0.0441 µM and a TGI [58] of 0.663 µM.
